Series [1] concerns N. parvum isolate Bourgogne S-116. The series can be described thus: Mycelial growth of N. parvum on supplemented PDA medium (Example 1). It counts as cell-based, Neofusicoccum parvum. Particulars: after 4 days, versus control (100%).
Another series concerns B. cinerea B0510. The series can be described thus: Mycelial growth of B. cinerea on supplemented PDA medium (Example 2). It is filed as cell-based, Botrytis cinerea. The settings on record: after 8 days, versus control (100%).
The subject of series [2] is N. parvum isolate Bourgogne S-116. More on the design: species or system V. vinifera L. cv. Chardonnay. The settings on record: in vivo.
In series [3] the test system is Calli of V. vinifera cv. Chardonnay. The series can be described thus: Phytotoxicity on grapevine cell clusters (calli) (Example 4). It counts as cell-based, V. vinifera L. cv. Chardonnay. Particulars: for appearance and color of the calli: MPM1 medium supplemented with 5 or 10 mM. The procedure:
Calli (or undifferentiated cell clusters) of V. vinifera cv. Chardonnay are obtained from anthers as described in Mauro et al. (1986) and in Bertsch et al. (2005).
All the calli are inoculated on fresh solid MPM1 medium (Perrin et al. 2004) every 3 weeks and incubated at 25±0.5° C. in the dark with a relative humidity of 70±10%.
This experiment was repeated three times. For each condition, 15 white-yellow calli, with a diameter of 10±2 mm, were used.
Calli growth in each condition tested is evaluated by weighing each day for 5 days. Duncan's statistical test (with p≦0.05) was applied to the means and standard deviations of the results thus obtained. In addition to weighing, we visually evaluate the appearance and color of the calli according to their culture medium for 2 months.

As for `O=C([O-])CC(O)(CC(=O)[O-])C(=O)[O-].[Bi+3]` [bismuth citrate], the “inhibition of the growth of the fungus on the culture medium” value (“inhibition of the growth of the fungus” for short) (in series [1]; in the series on B. cinerea B0510) was “do not significantly inhibit the growth of the fungus” in each case.

`[O-2].[O-2].[O-2].[Sb+3].[Sb+3]` [antimony oxide]: the “inhibition of the growth of the fungus” value (in series [1]; in the series on B. cinerea B0510) was “do not significantly inhibit the growth of the fungus” each time.

Take `O=C(O)c1ccccc1O` [salicylic acid]: in series [2], the “inhibition of the development of necrosis on the inoculated internodes” value is reported as “does not significantly inhibit the development of necrosis”. In addition, the “appearance and color of the calli” value in series [3] was “light grayish coloring at the periphery of the calli but no necrosis”.

As for `O=C1[O][Bi]([OH])[O]c2ccccc21` [bismuth subsalicylate], the “appearance and color of the calli” value in series [3] is on record as “light grayish coloring at the periphery of the calli but no necrosis”. Moreover, in series [3] (supplemented MPM1 medium, 5 days of culture), the “growth of the calli (weighing)” value was “no impact in terms of growth, multiplication or necrotic appearance”.

As to `[Bi+3].[Bi+3].[O-2].[O-2].[O-2]` [bismuth oxide], the “inhibition of the growth of the fungus” value (in series [1]; in the series on B. cinerea B0510) was “do not significantly inhibit the growth of the fungus” each time. In addition, the “reduction in the surface area of the necrotic lesions” value in series [2] was determined as 5%. Moreover, in series [3], the “appearance and color of the calli” value is given as “no change”.

Source of the values: US20170311603A1 (priority 2014, published 2017).
